Test results: US7115574B2, “System and method for support legacy operating system booting in a legacy-free system” (priority 2001, dated 2006)
Several values for one entry are separate records, joined by “and”; a condition that tells them apart may be missing. Identical values can stand only once.

Columns and labels:
C. albicans = assay: cAMP content of C. albicans (EIA); format: cell-based; conditions: 10^−6 M; for cAMP content in the yeast: 3 minutes, permeabilized C. albicans
Protocol: C. albicans (10^6/ml), permeabilized with toluene/ethanol, were incubated at 37° C. with continuous shaking in the presence of 10^−6 M α-MSH(1-13) (SEQ ID NO: 3), (11-13), (SEQ ID NO: 1), forskolin, an agent known to increase intracellular cAMP, or in medium alone. The reaction was stopped after 3 minutes by the addition of ice cold ethanol, cAMP was measured in duplicate using a commercial enzyme immunoassay (EIA) kit (Amersham, United Kingdom) after extraction via the liquid-phase method according to manufacturer's instructions. The effect of forskolin (10^−6 M) on C. albicans colony formation was determined using the same procedure as for α-MSH peptides.

[1] = tested on: N9 clone of murine microglial cells; assay: TNF-α, IL-6 and NO2− production by LPS+IFN-γ activated microglia; format: cell-based; conditions: for concentration most effective at inhibiting cytokine formation: LPS+IFN-γ stimulated microglia, 1-100 μM tested
Protocol: See Delgado, R., Carlin, A., Alraghi, L., Demitri, M., Meda, L., Galimberti, D., Pierluigi, B., Lipton, J. M., Catania, A., Melanocortin Peptides Inhibit Production of Proinflammatory Cytokines and Nitric Oxide by Activated Microglia, 63 J. of Leukocyte Biol. 740 (1998). […] The N9 clone of murine microglial cells was obtained by immortalization of embryonic brain cultures with the 3RV retrovirus carrying an activated v-myconcogene. N9 cells were cultured in T-75-cm^2 culture flasks (Coming, Cambridge, Mass.) and maintained at 37° C. in a humidified incubator under 5% CO2 atmosphere in RPMI 1640 supplemented with 2 mM L-glutamine, 50 U/mL penicillin G, 50 μg/mL streptomycin sulfate (GIBCO-BBL, Paisley, UK), and 10% heat-inactivated fetal bovine serum (FBS, Hyclone Lab, Inc., Logan, Utah) until experiments were performed. Cells were used between the first and the tenth passage.
Sub-confluent microglial cells were washed twice with phosphate-buffered saline (PBS) and incubated with trypsin 0.025% and ethylenediaminetetraacetate (EDTA) 0.02% without calcium and magnesium for 3 min. at 37° C. to detach the cells from the culture flask. Cells were then resuspended in medium and incubated in 24-well tissue-culture plates at a concentration of 2×10^5 cells/mL for 16 h in a humidified incubator (37° C., 5% CO2). Growth medium was removed and cell monolayers were stimulated with 10 ng/mL lipopolysaccharide (LPS, from Escherichia coli 055:B5, Sigma Chemical Co., St. Louis, Mo.) plus 1 U/ml, murine IFN-γ (Sigma). […] Although production of TNF-α and NO was reduced to even much lower concentrations of the peptides, concentrations in the micromolar range had the most profound and consistent inhibitory effects. […] Cell-free supernatants were harvested after 24 h incubation and assayed for TNF-α, IL-6 and NO2. Viability of cells was assessed by trypan blue exclusion for each experimental condition: it was consistently >98%. Dexamethasone (Sigma) and N-monomethyl-L-arginine (L-NMMA: 100 μM, Cayman Chemical, Ann Arbor, Mich.) were used as positive controls for TNF-α and NO inhibition, respectively. Tests were repeated in at least three independent experiments and assays were performed in triplicate.
TNF-α bioactivity was measured in supernatants of cell cultures by standard cytotoxicity assay using L929 cells and recombinant human TNF-α (Sigma) as standard. The detection limit of the bioassay was 20 pg/mL. IL-6 was measured using a commercial murine enzyme-linked immunosorbent assay (ELISA: RPN 2714, Amersham, Little Chalfont, UK).
NO is rapidly oxidized to nitrite in culture medium, and nitrite (NO2^−) concentration is an indicator of NO production. Cell-free culture supernatants were mixed with equal amounts of Griess reagent (1% sulfanilamide, 0.1% naphtylethylenediamide in 2.5% phosphoric acid) in wells of 96-well ELISA plates. Samples were incubated at room temperature for 10 min and absorbance was measured at 540 nm with the use of a microplate reader. Nitrite […] concentrations were calculated using a sodium nitrite standard curve.
Effects of melanocortin peptides on cytokine and NO production were evaluated by repeated measures analysis of variance followed by Dunnet's test for specific comparisons. Probability values less than 0.05 were considered significant.

[2] = tested on: histamine-induced blue weal formation; assay: Sparrow/Wilhelm histamine-induced blue weal assay; format: in vivo, New Zealand white rabbits; conditions: for Result (relative intensity of blue weals, experimental vs control): scored 30 minutes after histamine
Source text: This model relies on the principal that localized, subcutaneous injections of histamine will result in a localized increase in capillary permeability. When the test animal has been pretreated with blue dye intravenously, the localized histamine injections will elicit blue-colored “weals” around the injection site. Thus, by preadministration of an effective anti-inflammatory agent the blue color of the histamine-induced weals will be much less pronounced, with the amount of color reduction being dependent on the relative amount and/or potency of the anti-inflammatory agent used.
Non-moulting New Zealand white rabbits were used for the Sparrow/Wilhelm assay. The skin of the rabbits back was closely clipped 1-2 days previous to the experiment, but not depilated, and the rabbits were kept warm until tested. […] Control rabbits received sham injections. Fifteen minutes following injection of the agent or sham, the rabbits received approximately 30 mg/kg of Pontamine blue dye as a 2.5% solution in 0.45% saline, into an exposed vein. Immediately following dye injections, histamine was injected intradermally in a 0.10 ml volume (1.25 mg histamine 0.1 ml volume) at several sites on each side of the spine. In all, one vertical row of six injections were made on each side of the spine. The relative intensity of the resultant blue weals were scored by an independent observer 30 minutes after histamine injection.

[3] = tested on: carrageenan-induced swelling in rat paws; assay: Rat paw edema test (carrageenan); format: in vivo, Sprague-Dawley rats; conditions: 100 mg/kg intraperitoneal, rats
Protocol: A second in vivo bioassay for anti-inflammatory activity was conducted in which the action of the tripeptide (SEQ ID NO: 1) was compared to that of hydrocortisone. In this assay, the two agents were given at similar doses and tested for their independent ability to inhibit carrageenan-induced swelling in rat paws. This assay, the rat paw edema test, was conducted generally as it is typically performed in the art, for example, as described by Winter et al. (1962), Proc. Soc. Exp. Biol. Med., 111:544 or in U.S. Pat. No. 4,150,137.
Briefly, the assay was performed as follows. Each of twenty-four male Sprague-Dawley rats was assigned to one of four groups: Tripeptide treatment and controls (matched according to body weight and initial paw volume), hydrocortisone treatment and matched controls. The volume of the right rear paw of the test and control animals was determined using standard procedures and a mercury displacement volumetric technique. […] One hour later 0.5 ml of 1% lambda carrageenan in saline solution was injected into the right rear paw of the animals and the paw volume was again recorded (baseline measure). For comparison of the effects of the two treatments, paw volume of experimental animals measured at hourly intervals was expressed as a percentage of the volume change of their respective matched controls.

[4] = microglia stimulated with LPS+IFN-γ for 24 hr, micromolar concentrations

Substance	cAMP content in the yeast (C. albicans)	concentration most effective at inhibiting cytokine formation [1] [µM]	reduction of production of IL-6 [1, 4]	reduction of production of NO2^− [1, 4]	reduction of production of TNF-α [1, 4]	Result (relative intensity of blue weals, experimental vs control) ([2]; 0.625 ug/kg protected tripeptide intravenously)	Result (relative intensity of blue weals, experimental vs control) ([2]; 1.25 ug/kg protected tripeptide intravenously)	Result (relative intensity of blue weals, experimental vs control) ([2]; 5 ug/kg protected tripeptide intravenously)	Result (relative intensity of blue weals, experimental vs control) ([2]; 10 ug/kg protected tripeptide intravenously)	lowest intravenous dose giving appreciable reduction in histamine-induced blue weal formation ([2]; rabbits, intravenous) [µg/kg]	anti-inflammatory activity (inhibition of paw edema) ([3]; between 1 and 4 hours)	decrease in paw inflammation ([3]; first hour after carrageenan injection)	increase in cAMP relative to equimolar forskolin (C. albicans)
SYSMEHFRWGKPV [α-MSH(1-13)]	enhanced cAMP content	10	31% and 50%	42% and 40%	43% and 45%								
Ac-Lys-Pro-Val-NH2 [α-MSH(11-13)]	enhanced cAMP content	1				No difference	E lighter than C	E lighter than C	E lighter than C	1.25	nearly identical anti-inflammatory activity	no such reduction was observed	same order of magnitude
